Series [1] in a line: Glass transition temperature (Tg) by modulated differential scanning calorimetry (mDSC). As to conditions: for Tg (° C.) First heating / Tg (° C.) Second heating: mDSC, precipitated salts of Compound 1; for Tg (° C.) First heating: first heating cycle; for Tg (° C.) Second heating: second heating cycle (intrinsic Tg in dry state); for Tg (° C.): spray dried salts (from acetone). It is filed as physicochemical. As for the experimental part:
Modulated differential scanning calorimetry (mDSC) was used to characterize salts of the invention. Solid samples were placed in hermetically sealed aluminum pan with a pinhole. Modulation amplitude of ±0.8° C. with a period of 60 sec was applied to the sample heated at 2° C./min under dried nitrogen purge using TA instruments (New Castle, Del., USA) model 1000.
Heat-cool-heat cycles were applied to allow for moisture evaporation during first heating cycle and to erase thermal history of the sample, which allowed for the determination of the intrinsic glass transition temperature (Tg) in dry state.
A general note: Differential scanning calorimetry records heat flow against a reference as temperature is scanned.

A short description of series [2]: Hygroscopicity at room temperature (weight gain and visual phase transition after 24 hours at controlled RH). It is filed as physicochemical. As for the experimental part:
Hygroscopicity of salts of invention were measured by placing 20-50 mg of the sample in an uncapped scintillation vial. The vial was stored at ambient temperature in a Pyrex brand desiccator (VWR, International, CT). […] The relative humidity was confirmed using a digital hygrometer pen (VWR International, CT). An empty scintillation vial was also placed in the desiccator as a control. […] Visual observation of phase transition was also noted.

Setting [3] is: 55% RH, room temperature, 24 hours.
Where [4] appears, read: 55% RH, room temperature, 24 hours, visual observation.
[5] abbreviates: 75% RH, room temperature, 24 hours.
[6] abbreviates: 75% RH, room temperature, 24 hours, visual observation.

These results are taken from US20140187771A1, “AMORPHOUS SOLID SALTS” (Gilead Sciences, Inc., priority 2011, published 2014).

Each structure is given as a SMILES string.

Regarding `CC(C)c1nc(CN(C)C(=O)N[C@@H](CCN2CCOCC2)C(=O)N[C@H](CC[C@H](Cc2ccccc2)NC(=O)OCc2cncs2)Cc2ccccc2)cs1.CCS(=O)(=O)O`, the “Tg (° C.) First heating” value in series [1] is −0.23 °C. Besides, the “Tg (° C.) Second heating” value in series [1] came out at 37 °C. The “% weight gain” value is on record as 8.78% in series [2] (setting [3]) and 16.2% in series [2] (setting [5]). The Phase transition entry in series [2] (setting [4]) and in series [2] (setting [6]) was “Yes” throughout.
Take `CC(C)c1nc(CN(C)C(=O)N[C@@H](CCN2CCOCC2)C(=O)N[C@H](CC[C@H](Cc2ccccc2)NC(=O)OCc2cncs2)Cc2ccccc2)cs1.CC1(C)C2CCC1(CS(=O)(=O)O)C(=O)C2` [camphorosulfonate]: in series [1], the “Tg (° C.) First heating” value was found to be 66 °C. Besides, in series [1], the “Tg (° C.) Second heating” value turned out to be 66 °C. The “% weight gain” value worked out at 2.99% in series [2] (setting [3]) and 5.9% in series [2] (setting [5]). The Phase transition entry in series [2] (setting [4]) is given as “No”; in series [2] (setting [6]), “Yes”.
For `CC(C)c1nc(CN(C)C(=O)N[C@@H](CCN2CCOCC2)C(=O)N[C@H](CC[C@H](Cc2ccccc2)NC(=O)OCc2cncs2)Cc2ccccc2)cs1` [citrate], the “Tg (° C.) First heating” value in series [1] was found to be 59 °C. Also, in series [1], the “Tg (° C.) Second heating” value stood at 60 °C. Also, the “% weight gain” value in series [2] (setting [3]) is on record as 3.17%; in series [2] (setting [5]), 6.5%. For the same molecule, the Phase transition entry is listed as “No” in series [2] (setting [4]) and “Partial” in series [2] (setting [6]).
Take `CC(C)c1nc(CN(C)C(=O)N[C@@H](CCN2CCOCC2)C(=O)N[C@H](CC[C@H](Cc2ccccc2)NC(=O)OCc2cncs2)Cc2ccccc2)cs1.O=C(O)c1cc(O)ccc1O` [gentisate]: in series [1], the “Tg (° C.) First heating” value was found to be 62 °C, the “Tg (° C.) Second heating” value is 62 °C and the “Tg (° C.)” value turned out to be 61 °C. In addition, the “% weight gain” value in series [2] (setting [3]) turned out to be 2.17%. In addition, the Phase transition entry in series [2] (setting [4]) is reported as “No”. Also, the “% weight gain” value in series [2] (setting [5]) was found to be 5.2%. The Phase transition result in series [2] (setting [6]) is reported as “No”. Besides, in series [2] (spray dried salts, 55% RH), the Phase transition entry was “no” and the “Weight gain at 55% RH RH (%)” value was 3.1%. Also, in series [2] (spray dried salts, 75% RH), the Phase transition result was “partial” and the “Weight gain at 75% (%)” value worked out at 5.6%.
As for `CC(C)c1nc(CN(C)C(=O)N[C@@H](CCN2CCOCC2)C(=O)N[C@H](CC[C@H](Cc2ccccc2)NC(=O)OCc2cncs2)Cc2ccccc2)cs1.O=C(O)CNC(=O)c1ccccc1` [hippurate], the “Tg (° C.) First heating” value in series [1] was 31 °C. Moreover, the “Tg (° C.) Second heating” value in series [1] is 44 °C. Further, the results for the “% weight gain” value in series [2] (setting [3]) and in series [2] (setting [5]) were 3.37% and 5.61%, respectively. Also, the Phase transition result is on record as “Partial” in series [2] (setting [4]) and “Yes” in series [2] (setting [6]).
With `CC(C)c1nc(CN(C)C(=O)N[C@@H](CCN2CCOCC2)C(=O)N[C@H](CC[C@H](Cc2ccccc2)NC(=O)OCc2cncs2)Cc2ccccc2)cs1.Cl` [hydrochloride], the “Tg (° C.) First heating” value in series [1] came out at 34 °C. Further, the “Tg (° C.) Second heating” value in series [1] amounted to 59 °C. In addition, the “Tg (° C.)” value in series [1] was 35 °C. For the same molecule, the figures for the “% weight gain” value in series [2] (setting [3]) and in series [2] (setting [5]) were 4.32% and 6.92%, respectively. Besides, the Phase transition result in series [2] (setting [4]) is on record as “Partial”; in series [2] (setting [6]) it was “Yes”; in series [2] (spray dried salts, 55% RH) it was “partial”; in series [2] (spray dried salts, 75% RH) it was “yes”. Moreover, in series [2] (spray dried salts, 55% RH), the “Weight gain at 55% RH RH (%)” value is given as 7.8%. Besides, the “Weight gain at 75% (%)” value in series [2] (spray dried salts, 75% RH) came out at 9.4%.
For `O=C(O)CCC(=O)C(=O)O` [ketoglutarate], the “Tg (° C.) First heating” value in series [1] is 24 °C. The “Tg (° C.) Second heating” value in series [1] stood at 42 °C. The “% weight gain” value in series [2] (setting [3]) was determined as 3.27%; in series [2] (setting [5]), 5.23%. The Phase transition result in series [2] (setting [4]) and in series [2] (setting [6]) was “Yes” each time.
As for `CC(C)c1nc(CN(C)C(=O)N[C@@H](CCN2CCOCC2)C(=O)N[C@H](CC[C@H](Cc2ccccc2)NC(=O)OCc2cncs2)Cc2ccccc2)cs1.CC(O)C(=O)O` [lactate], in series [1], the “Tg (° C.) First heating” value amounted to 2 °C and the “Tg (° C.) Second heating” value amounted to 17 °C. Further, the “% weight gain” value in series [2] (setting [5]) came out at 5.76%. The Phase transition result in series [2] (setting [6]) is given as “Yes”.
Consider `CC(C)c1nc(CN(C)C(=O)N[C@@H](CCN2CCOCC2)C(=O)N[C@H](CC[C@H](Cc2ccccc2)NC(=O)OCc2cncs2)Cc2ccccc2)cs1.O=C(O)CC(=O)O` [malonate], for which the “Tg (° C.) First heating” value in series [1] came out at 14 °C. The “Tg (° C.) Second heating” value in series [1] came to 36 °C. Also, the “% weight gain” value is recorded as 3.43% in series [2] (setting [3]) and 6.18% in series [2] (setting [5]). The Phase transition entry in series [2] (setting [4]) and in series [2] (setting [6]) was “Yes” throughout.
`CC(C)c1nc(CN(C)C(=O)N[C@@H](CCN2CCOCC2)C(=O)N[C@H](CC[C@H](Cc2ccccc2)NC(=O)OCc2cncs2)Cc2ccccc2)cs1.O=C(O)C(=O)O.O=C(O)C(=O)O` [oxalate]: the “Tg (° C.) First heating” value in series [1] was determined as 34 °C. Moreover, the “Tg (° C.) Second heating” value in series [1] worked out at 46 °C. Further, the figures for the “% weight gain” value in series [2] (setting [3]) and in series [2] (setting [5]) were 4.38% and 9.36%, respectively. Moreover, the Phase transition result in series [2] (setting [4]) was “Partial”; in series [2] (setting [6]) it was “Yes”.
Take `CC(C)c1nc(CN(C)C(=O)N[C@@H](CCN2CCOCC2)C(=O)N[C@H](CC[C@H](Cc2ccccc2)NC(=O)OCc2cncs2)Cc2ccccc2)cs1.O=P(O)(O)O` [phosphate]: in series [1], the “Tg (° C.) First heating” value came to 66 °C, the “Tg (° C.) Second heating” value worked out at 69 °C and the “Tg (° C.)” value is 92 °C. In series [2] (setting [3]), the “% weight gain” value is 4.52%. Moreover, the Phase transition result in series [2] (setting [4]) is “No”. For the same molecule, in series [2] (setting [5]), the “% weight gain” value came out at 7.9%. Besides, in series [2] (setting [6]), the Phase transition result is listed as “Partial”. In series [2] (spray dried salts, 55% RH), the Phase transition result is “no” and the “Weight gain at 55% RH RH (%)” value is listed as 4.7%. Also, in series [2] (spray dried salts, 75% RH), the Phase transition result was “yes” and the “Weight gain at 75% (%)” value is reported as 8.0%.
Consider `CC(C)c1nc(CN(C)C(=O)N[C@@H](CCN2CCOCC2)C(=O)N[C@H](CC[C@H](Cc2ccccc2)NC(=O)OCc2cncs2)Cc2ccccc2)cs1.O=C1NS(=O)(=O)c2ccccc21` [saccharinate], for which the “Tg (° C.) First heating” value in series [1] is 37 °C. In series [1], the “Tg (° C.) Second heating” value turned out to be 56 °C. Besides, in series [1], the “Tg (° C.)” value came to 36.4 °C. The figures for the “% weight gain” value in series [2] (setting [3]) and in series [2] (setting [5]) were 1.89% and 4.09%, respectively. Further, the Phase transition result in series [2] (setting [4]) is reported as “No”; in series [2] (setting [6]), “Yes”; in series [2] (spray dried salts, 55% RH) it was “no”; in series [2] (spray dried salts, 75% RH), “yes”. Also, the “Weight gain at 75% (%)” value in series [2] (spray dried salts, 75% RH) was found to be 4.0%.
Consider `CC(C)c1nc(CN(C)C(=O)N[C@@H](CCN2CCOCC2)C(=O)N[C@H](CC[C@H](Cc2ccccc2)NC(=O)OCc2cncs2)Cc2ccccc2)cs1.O=C(O)CCC(=O)O` [succinate], for which, in series [1], the “Tg (° C.) First heating” value was determined as 16 °C. In addition, the “Tg (° C.) Second heating” value in series [1] worked out at 35 °C. The figures for the “% weight gain” value in series [2] (setting [3]) and in series [2] (setting [5]) were 3.95% and 6.09%, respectively. Further, the Phase transition result in series [2] (setting [4]) and in series [2] (setting [6]) was “Yes” throughout.
With `O=S(=O)(O)O` [sulfate], in series [1], the “Tg (° C.) First heating” value came to 71 °C. For the same molecule, the “Tg (° C.) Second heating” value in series [1] came out at 71 °C. For the same molecule, the Phase transition entry in series [2] (setting [4]) is “Partial”; in series [2] (setting [6]) it was “Yes”.
